This passage reports melting point results from a melting point compilation (Tetko et al.).

Where only a bound is given, the exact number is not on record here.

As for `Cc1ccc(N(CCO)CCO)cc1N=Nc1ccc([N+](=O)[O-])cc1`, the melting point (as a rule, the temperature of the solid-liquid transition) stood at 160 °C. For `Nc1c(S(=O)(=O)c2ccccc2)csc1C(=O)O`, the melting point lay in the range of 174 to 176 °C. `O=C(CC(C(=O)c1ccccc1)c1ccccc1)c1ccccc1` (configuration not stated) yielded a melting point of 128 °C. For `CC(=O)OC1CCC2(C)C3CCC4(C)C(C(C)CCCC(C)C)CCC4C3CC(OC(C)=O)C2(O)C1` (configuration not stated) the value was 164 °C. `C1CCCCCCCC1`: the melting point was determined as 11 °C. The molecule `CSC(=O)c1cccc2nnsc12` came in with a melting point of 133 °C. As to `O=c1cc(-c2ccccc2)cc(-c2ccccc2)o1`, the melting point amounted to 137 °C. As to `CC(C)(C)Oc1ncc(Br)cn1`, the melting point amounted to 62 °C. The molecule `O=C1CC2C(Br)CC1C2C(=O)O` (configuration not stated) displayed a melting point of 178 to 182 °C.

As for `NC(=O)c1ccccc1N1CCCCC1`, the melting point lay within 115 to 118 °C. Molecule `CC(=O)OC1CCC2(C)C(=CCC3C4CCC(=O)C4(C)CCC32)C1` (configuration not stated) returned a melting point of 147 °C.

Molecule `N#CC(N)=C(N)C#N` showed a melting point of 178 to 179 °C. As to `O=S(=O)(O)CCNC(CO)(CO)CO`, the melting point was in the range of 223 to 225 °C. The value for `Clc1ncnc2sc3c(c12)CCCC3` was 96 °C; that for `CC1CCSCC1` was -28 °C.

Molecule `O=C(Nc1cc2c(cc1/C=C/c1ccccc1)CC(c1ccccc1)N2C(=O)c1ccccc1)c1ccccc1` (configuration not stated) had a melting point of 250 °C.

Consider `c1ccc(Cc2cccc3ccccc23)cc1`, for which the melting point was 59.5 °C.

As to `Cc1ccccc1-c1cc2ccccc2c(=O)o1`, the melting point is 86 °C. Take `CC(=O)c1ccc(Oc2ccccc2)cc1`: the melting point is 52 to 54 °C. The value for `NNC(=O)c1cc(OCC(F)(F)F)ccc1OCC(F)(F)F` was 86 to 88 °C; that for `N=C(N)SCCCS(=O)(=O)O` was 240 to 248 °C; that for `CC1=CC(=O)NS(=O)(=O)O1` was 123 °C. Turning to `ClCc1noc(-c2ccsc2)n1`, the melting point lay in the range of 69 to 70 °C. Molecule `CC1(C)C(C=CC(=O)OC(C(F)(F)F)C(F)(F)F)C1C(=O)OC(C#N)c1cccc(Oc2ccccc2)c1` (configuration not stated) yielded a melting point of 81.5 °C. `CCOC(C)=C(C#N)C#N` showed a melting point of 89 to 93 °C.

`COC(=O)c1ccc(-c2nc(C)no2)cc1`: the melting point fell in the range of 160 to 163 °C. Consider `ClCc1ccc(-c2ncccn2)cc1`, for which the melting point was 83 to 84.5 °C. `O=C(Nc1nc2ccccc2s1)C(C(F)(F)F)C(F)(F)F`: the melting point amounted to 174 °C. `C=CCn1c(N)cc(=O)n(CC)c1=O` gave a melting point of 143 °C. Consider `CCC(C)Nc1c([N+](=O)[O-])cc(C(C)(C)C)cc1[N+](=O)[O-]` (configuration not stated), for which the melting point stood at 60 °C.

`Cc1c(C)c([N+](=O)[O-])c(C(C)(C)C)c([N+](=O)[O-])c1C`: the melting point worked out at 136 °C.

On to `CCN(CC)C(=O)n1cnc(S(=O)(=O)c2c(C)cc(C)cc2C)n1`, for which the melting point amounted to 115 °C.

In turn, `COC(=O)Cc1cccc(OCc2ccccc2)c1` returned a melting point of 34 to 37 °C. For `CCCCC(O)(Cn1cncn1)c1ccc(Cl)cc1Cl` (configuration not stated), the melting point was found to be 111 °C. With `Cc1oncc1C(=O)O`, the melting point was 147 °C. Turning to `CCCCCCCC(=O)NO`, the melting point is 78.8 °C.

As to `COc1ccc(/C(C(=O)c2ccccc2)=C2/C(=O)N(C(C)=O)c3ccccc32)cc1`, the melting point came out at 180 °C. For `OCCN1CCN(c2ncc(C(F)(F)F)cc2Cl)CC1`, the melting point fell in the range of 62 to 66 °C. `CC1(C)OC2CC3C4CCC5=CC(=O)C=CC5(C)C4C(O)CC3(C)C2(C(=O)CO)O1` (configuration not stated) returned a melting point of 274 °C.

For the molecule `CS(=O)(=O)c1cc(C(F)(F)F)ccc1C(=O)c1cnoc1C1CC1`, the melting point is 140 °C.

`Cc1cc(O)cc(Br)c1` returned a melting point of 56.5 °C.

In turn, `CC(CN(C)C)CN1c2ccccc2CCc2ccccc21` (configuration not stated) displayed a melting point of 45 °C.

Take `C=CC(=O)NC(C)(C)CS(=O)(=O)O`: the melting point was 195 °C.

`CCOC(=O)C=CC(=O)O` had a melting point of 70 °C.

Molecule `O=C1OC(C2CCCCC2)Cc2ccccc21` (configuration not stated) displayed a melting point of 71 to 74 °C. Molecule `Nc1c(Br)cc(C(F)(F)F)cc1Br` showed a melting point of 38 °C. With `Nc1ccc(Oc2ccc(Br)cc2)nc1`, the melting point was in the range of 107 to 109 °C. For `Brc1ccc(Oc2ccccc2)c(Br)c1`, the melting point is less than 20 °C. Take `CCOC(=O)c1nn(-c2ccc(C)cc2)c(C)c1C(=O)c1noc(-c2ccc([N+](=O)[O-])cc2)c1S(=O)(=O)c1ccccc1`: the melting point was found to be 189 °C. In the case of `Cc1ccc(C)[nH]1`, the melting point was 7.7 °C. In turn, `NNC(=O)c1cccc2cc[nH]c12` registered a melting point of 178 °C. Take `COc1ccccc1C1(C)CCc2oc3ccc(C)cc3c2-c2oc(C)cc21` (configuration not stated): the melting point turned out to be 179 °C. For the molecule `CC12C=CC(=O)C=C1CCC1C2C(O)CC2(C)C1CCC2(O)C(=O)COC(=O)CCCc1ccc(N(CCCl)CCCl)cc1` (configuration not stated), the melting point came out at 164 °C. For `CCOc1cc2c(cc1OCC)C(CC#N)NCC2` (configuration not stated) the value was 99 to 102 °C; for `Cc1ccccc1/N=N/c1c(C)[nH]c(=S)c(C#N)c1C`, 178 °C; for `c1cc2ccc3ccc4ccc5cccc6c(c1)c2c3c4c56`, 278 °C.

`CCC1NC(C(=O)O)CS1` (mixture of isomers) had a melting point of 158 to 162 °C. In turn, `O=[N+]([O-])c1ccc(-n2cc([N+](=O)[O-])c(-c3ccccc3)n2)cc1` yielded a melting point of 230 to 232 °C.

`CCOC1Oc2ccc(OS(C)(=O)=O)cc2C1(C)C` (configuration not stated) came in with a melting point of 71 °C.

`COc1cc2ccc(N(C)S(=O)(=O)c3ccc(C)cc3)cc2[nH]1` displayed a melting point of 203 °C. Molecule `C[Si](C)(C)CC(=O)O` showed a melting point of 41 °C.

As for `CC(C)(C)N(NC(=O)c1ccccc1)C(=O)c1cccc(C(F)(F)F)c1`, the melting point was determined as 204 °C. Molecule `COc1ccc(/N=N/c2c(N)nn3c(C)cc(=O)[nH]c23)cc1` yielded a melting point of 276 °C. The molecule `OCc1ccccc1N1CCOCC1` came in with a melting point of 54 to 57 °C. In the case of `COC(=O)C1=C(C)NC(C)=C(C(=O)OC)C1c1ccco1`, the melting point came to 186 °C. Turning to `c1ccc(-c2nc(-c3ccccc3)nc(-c3ccccc3)n2)cc1`, the melting point was determined as 235 °C. For `COC(=O)c1ccc([N+](=O)[O-])c(OC)c1` the value was 85 °C.

Take `CCOCCOC(=O)C=Cc1ccc(OC)cc1`: the melting point is -25 °C. In turn, `O=Cc1c(Cl)ccc([N+](=O)[O-])c1Cl` displayed a melting point of 165 to 167 °C.

`Oc1ccc(Br)c(O)c1` showed a melting point of 103 °C.

The molecule `COC(=O)C1(S(=O)(=O)c2ccc(Br)cc2)CCC1` showed a melting point of 95 °C. In the case of `CC1CNC(C(C2=NCC(C)N2)C2=NCC(C)N2)=N1` (configuration not stated), the melting point was 241 to 242 °C. As for `CCCCNCCO`, the melting point was -2 °C. Take `Cc1nc2ccccc2[nH]c1=O`: the melting point was 270 °C. Consider `NNC(=S)Nc1cccc(Cl)c1`, for which the melting point was determined as 132 °C. The molecule `O=C(O)C1CCCCC1C(=O)OCCO` (configuration not stated) registered a melting point of 90 °C. Turning to `CCCCCCCCCCCCCCCCCC(=O)OC(=O)CCCCCCCCCCCCCCCCC`, the melting point turned out to be 72 °C. Regarding `O=C(Cl)c1ccc2sccc2c1`, the melting point was 86 to 87 °C. As for `Nn1c(Cc2ccccc2)nc2ccccc2c1=O`, the melting point was 111 °C. For `CS(=O)(=O)c1ccc2c(c1)N(CCCN1CCC(C(N)=O)CC1)c1ccccc1S2` the value was 170 °C. The value for `Brc1cccc2c(/C=N/Nc3ccccc3)cccc12` was 105 °C; that for `CCCCCNCCCCC` was -7.85 °C; that for `c1ccc(CC2=NCCN2)cc1` was 174 °C. With `COc1ccc(-c2nn(-c3ccccc3)cc2CNc2ccc(F)c(Cl)c2)cc1`, the melting point was 117 °C. `CSC(SC)=C(C#N)C#N` gave a melting point of 82 to 84 °C.

`CN=C=O` registered a melting point of -45 °C. The molecule `c1ccc(-c2cccc(-c3ccccc3)c2)cc1` yielded a melting point of 87 °C. For `CC(O)c1ccccc1` (configuration not stated) the value was 20 °C.

For the molecule `O=c1n2ccccc2nc2nc3ccccc3n12`, the melting point lay within 338 to 340 °C. Regarding `Cc1cc(C(F)(F)F)n2nc(N)c(/N=N/c3ccc4ccccc4c3)c2n1`, the melting point was found to be 246 °C. `CC(=O)OC1CCC2(C)C(C1)CC1(OCCO1)C1C2CCC2(C)C1CCC21OCCO1` (configuration not stated) registered a melting point of 205 to 210 °C.

For `CC1(C)O[C@@H](CP(c2ccccc2)c2ccccc2)[C@@H](CP(c2ccccc2)c2ccccc2)O1`, the melting point fell in the range of 86 to 88 °C. For the molecule `CCOC(=O)C(=O)C(C#N)c1ccccc1` (configuration not stated), the melting point stood at 127 °C. Take `Nc1nc(-c2ccccc2)ns1`: the melting point was 152 to 156 °C.

Take `OCC(O)CI` (configuration not stated): the melting point stood at 48.5 °C. Molecule `CC(=O)OC(C(=O)Cl)c1ccccc1` (configuration not stated) came in with a melting point of 36 °C. The value for `Sc1nc2cc3c(cc2[nH]1)OCCO3` was 300 °C; that for `CC(C)N(C(=O)Cl)C(C)C` was 55 to 60 °C; that for `O=C(Nc1ccccc1)c1nn(-c2ccccc2)c(-c2ccc([N+](=O)[O-])cc2)c1S(=O)(=O)c1ccccc1` was 240 °C. `COc1ccc2c(c1)C(C(=O)O)C2` (configuration not stated) displayed a melting point of 93 °C.

`Cn1ccc(-c2cccc(C(=O)Oc3c(F)c(F)c(F)c(F)c3F)c2)n1`: the melting point is 126 to 127 °C. `O=C(C=Cc1ccc(-c2ccccc2[N+](=O)[O-])o1)c1ccco1` returned a melting point of 168 to 169 °C.

Turning to `CCOC(=O)c1cnn(-c2ccc(N)cc2)c1C`, the melting point was 91 to 92 °C. The molecule `CC(C)(C)N(NC(=O)c1ccccc1)C(=O)c1ccc(C#N)cc1` displayed a melting point of 200 °C. `CC(C)(C)NSc1nc2ccccc2s1`: the melting point was 108 °C. In the case of `CC(C)NNC(=O)COc1ccc(Cl)cc1`, the melting point stood at 93.5 °C. `CCCCCCCCCI` had a melting point of -20 °C.
